# Measurements: article PMC8653295 (Chemistry (Weinheim an Der Bergstrasse, Germany), 2021)
# “And” between values parts separate entries of the source, which are not always exact repeats. Equal values may be shown once. “Also recorded” adds a separate entry of the source.
# Biological target: interaction of the RBD of the SARS‐CoV‐2 S protein with the ACE2 receptor (Severe acute respiratory syndrome coronavirus 2, UniProt P0DTC2)
# Test: not given
# Format: binding
# Details: 20 µM
row,Compound,inhibition of the S/ACE2 interaction [%]
1,"[Cl-].[Cl-].[Ti+4].c1cc[cH-]c1.c1cc[cH-]c1 [Ti‐1, titanocene dichloride, reference compound]",69
2,[Cl][Au-][c]1n(Cc2ccccc2)cc(-c2ccccc2)[n+]1Cc1ccccc1 [Au‐17],9
3,CC[n+]1[c-]n(CC2(c3ccc(Cl)cc3Cl)OCC(COc3ccc(N4CCN(C(C)=O)CC4)cc3)O2)cc1.[Au+].[Cl-] (stereo not drawn) [Au‐19],16
4,"[Cl][Au].c1ccc(P(c2ccccc2)c2ccccc2)cc1 [Au‐4, (triphenylphosphine)AuCl, reference compound]",19
5,CCn1[c]([Au-][Cl])[n+](CC)c2cc(C(=O)OC)ccc21 [Au‐12],19
6,Cs3K[(HO2CC6H4CH2P)2Mo5O21] ⋅ 5H2O [POM‐8],9
7,CCn1cc(-c2ccccc2)[n+](CC)[c]1[Au-][c]1n(CC)cc(-c2ccccc2)[n+]1CC.[I-] [Au‐23],23

# Same assay, conditions: read-out: IC50 as inhibitors of the S/ACE2 interaction
row,Compound,IC50 [nM]
1,"[Cl-].[Cl-].[Ti+4].c1cc[cH-]c1.c1cc[cH-]c1 [Ti‐1, titanocene dichloride, reference compound]",3900 ± 300

# Biological target: SARS‐CoV PL^pro (Severe acute respiratory syndrome coronavirus, UniProt P0C6X7)
# Test: biochemical
# Format: biochemical
# Details: not given
Compound,activity against SARS‐CoV PL^pro (in words),IC50 [nM]
"[Cl-].[Cl-].[Ti+4].c1cc[cH-]c1.c1cc[cH-]c1 [Ti‐1, titanocene dichloride, reference compound]",inactive,–
[Cl][Au-][c]1n(Cc2ccccc2)cc(-c2ccccc2)[n+]1Cc1ccccc1 [Au‐17],inactive,–
CCn1[c]([Au-][Cl])[n+](CC)c2cc(C(=O)OC)ccc21 [Au‐12],–,330 ± 110

# Same assay, conditions: 10 µM
row,Compound,inhibition of SARS-CoV PLpro
1,Na6[TeW6O24] ⋅ 22H2O [POM‐5],49%
2,"[Cl-].[Cl-].[Ti+4].c1cc[cH-]c1.c1cc[cH-]c1 [Ti‐1, titanocene dichloride, reference compound]",6%
3,[Cl][Au-][c]1n(Cc2ccccc2)cc(-c2ccccc2)[n+]1Cc1ccccc1 [Au‐17],-3%
4,CC[n+]1[c-]n(CC2(c3ccc(Cl)cc3Cl)OCC(COc3ccc(N4CCN(C(C)=O)CC4)cc3)O2)cc1.[Au+].[Cl-] (stereo not drawn) [Au‐19],94% and > 80%
5,"[Cl][Au].c1ccc(P(c2ccccc2)c2ccccc2)cc1 [Au‐4, (triphenylphosphine)AuCl, reference compound]",50% and > 50%
6,Cs3K[(HO2CC6H4CH2P)2Mo5O21] ⋅ 5H2O [POM‐8],5%
7,CCn1cc(-c2ccccc2)[n+](CC)[c]1[Au-][c]1n(CC)cc(-c2ccccc2)[n+]1CC.[I-] [Au‐23],25%

# Biological target: SARS‐CoV‐2 PL^pro (Severe acute respiratory syndrome coronavirus 2, UniProt P0DTD1)
# Test: biochemical
# Format: biochemical
# Details: not given
Compound,activity against SARS‐CoV‐2 PL^pro (in words),IC50 [nM]
"[Cl-].[Cl-].[Ti+4].c1cc[cH-]c1.c1cc[cH-]c1 [Ti‐1, titanocene dichloride, reference compound]",inactive,–
[Cl][Au-][c]1n(Cc2ccccc2)cc(-c2ccccc2)[n+]1Cc1ccccc1 [Au‐17],inactive,–
CCn1[c]([Au-][Cl])[n+](CC)c2cc(C(=O)OC)ccc21 [Au‐12],–,1100 ± 60

# Same assay, conditions: 1 µM
row,Compound,inhibition of SARS-CoV-2 PLpro
1,Na6[TeW6O24] ⋅ 22H2O [POM‐5],69%
2,"[Cl-].[Cl-].[Ti+4].c1cc[cH-]c1.c1cc[cH-]c1 [Ti‐1, titanocene dichloride, reference compound]",-13%
3,[Cl][Au-][c]1n(Cc2ccccc2)cc(-c2ccccc2)[n+]1Cc1ccccc1 [Au‐17],13%
4,CC[n+]1[c-]n(CC2(c3ccc(Cl)cc3Cl)OCC(COc3ccc(N4CCN(C(C)=O)CC4)cc3)O2)cc1.[Au+].[Cl-] (stereo not drawn) [Au‐19],2%
5,"[Cl][Au].c1ccc(P(c2ccccc2)c2ccccc2)cc1 [Au‐4, (triphenylphosphine)AuCl, reference compound]",78% and > 50%
6,Cs3K[(HO2CC6H4CH2P)2Mo5O21] ⋅ 5H2O [POM‐8],7%
7,CCn1cc(-c2ccccc2)[n+](CC)[c]1[Au-][c]1n(CC)cc(-c2ccccc2)[n+]1CC.[I-] [Au‐23],-10%

# System: SARS‐CoV‐2
# Test: not given
# Format: cell-based
# Details: not given
Compound,antiviral effect against SARS‐CoV‐2 replication (in words),concentration at which antiviral effects were shown
"CCC(CC)COC(=O)[C@H](C)N[P@](=O)(OC[C@H]1O[C@@](C#N)(c2ccc3c(N)ncnn23)[C@H](O)[C@@H]1O)Oc1ccccc1 [Remdesivir, remdesivir, reference compound]",efficiently inhibited viral replication at low micromolar concentrations,–
"[Cl-].[Cl-].[Ti+4].c1cc[cH-]c1.c1cc[cH-]c1 [Ti‐1, titanocene dichloride, reference compound]",active at 125 and 500 μM; also recorded: strongly blocked viral replication at a high dosage of 500 μM,higher than 100 μM
CCn1[c]([Au-][Cl])[n+](CC)c2cc(C(=O)OC)ccc21 [Au‐12],at 6.25 and 25 μM concentrations efficiently inhibited; also recorded: antiviral activity starting at low micromolar concentrations,–

# System: Caco‐2 cells
# Test: not given
# Details: not given
row,Compound,concentration up to which no significant cytotoxic effects / tolerated well [µM]
1,Na6[TeW6O24] ⋅ 22H2O [POM‐5],≥ 200
2,"[Cl-].[Cl-].[Ti+4].c1cc[cH-]c1.c1cc[cH-]c1 [Ti‐1, titanocene dichloride, reference compound]",≥ 500

# System: CaLu‐3 cells
# Test: not given
# Details: not given
row,Compound,concentration up to which no significant cytotoxic effects / tolerated well [µM]
1,Na6[TeW6O24] ⋅ 22H2O [POM‐5],≥ 200
2,"[Cl-].[Cl-].[Ti+4].c1cc[cH-]c1.c1cc[cH-]c1 [Ti‐1, titanocene dichloride, reference compound]",≥ 500
